Legend:
B16F1 melanin cells = assay: Inhibition of melanin synthesis in B16F1 melanin cells; format: cell-based, mice; settings: 0.2 wt %; B16F1, 72 hours
Method: B16F1 melanocytes used for the present test example were cell lines derived from mice, which secrete a black pigment called “melanin”. The effect on inhibition of melanin synthesis of B16F1 melanin cells was measured as follows. […] After culturing for 72 hours, the cells were removed from trypsin-EDTA, counted and collected by centrifugation. Melanin in cells was assayed using a slightly modified version of Lotan's method (R Lotan and D Lotan, Cancer Res, 40: 3345-3350, 1980). Cell pellets were washed with PBS once and homogenized, 1 mL of a buffer solution (50 mM sodium phosphate, pH 6.8, 1% Triton X-100, 2 mM PMSF) was added to the cells, and the cells were crushed by vortex for 5 minutes. Melanin extracted by addition of 1N NaOH (10% DMSO) to a cell residue obtained by centrifugation (3,000 rpm, 10 minutes) was dissolved, absorbance of melanin at 405 nm was measured using a microplate reader, melanin was assayed, and inhibition of melanin production (%) of the sample was measured. In addition, a group not treated with the Pleurotus ferulae fruiting body extract, the Pleurotus ferulae mycelium extract or the Pleurotus ferulae mycelium culture was used as a control group, arbutin well-known as a whitening agent was used as a positive control group, and inhibition of melanin synthesis (%) by B16F1 melanin cells was calculated in accordance with Equation 4. […]

tyrosinase = assay: Inhibition of tyrosinase activity; format: biochemical, mushrooms; settings: 0.2 wt %; L-tyrosine substrate
Method: Tyrosinase is an enzyme which facilitates oxidation of a substance called “tyrosine” in vivo and aids in production of melanin. Tyrosinase was isolated from mushrooms and purified, and was obtained from Sigma Aldrich Corp. A 0.1 mg/mL solution of L-tyrosine as a substrate in a 0.05 M sodium phosphate buffer solution (pH 6.8) was prepared. […] The test tube containing the reaction solution was quenched in ice to stop the reaction and transmissivity at a wavelength of 475 nm was measured using a spectrophotometer. A group treated with 0.5 mL of a buffer solution, instead of the Pleurotus ferulae fruiting body extract, the Pleurotus ferulae mycelium extract or the Pleurotus ferulae mycelium culture was used as a control group, and arbutin, a well-known whitening agent, was used as a positive control group. In addition, inhibition of tyrosinase activity by the respective samples were calculated in accordance with the following Equation 3. Inhibition of tyrosinase activity (%)=100−[(absorbance of reference group/absorbance of control group)]×100 Equation 3

[1] = Antioxidative effect, NBT method (xanthine/xanthine oxidase); format: biochemical; settings: sample 0.1 wt %
Method: In accordance with the NBT method, active oxygen is produced by xanthine and xanthine oxidase, and absorbance at a wavelength of 560 nm of a blue substance produced upon reaction between the active oxygen and nitro blue tetrazolium (NBT) is measured. In the present test example, an active oxygen scavenge rate was measured in accordance with the following method. In addition, BHT, a well-known antioxidant, was used as a positive control group.
2.4 mL of 0.05M sodium carbonate (Na2CO3), 0.1 mL of a 3 mM xanthine solution, 0.1 mL of a 3 mM EDTA solution, 0.1 mL of a BSA solution and 0.1 mL of a 0.72 mM NBT solution were added to vials, 0.025, 0.05, 0.1 and 0.25% by weight of sample solutions were added respectively thereto, followed by allowing to stand at 25° C. for 10 minutes. After standing, 0.1 mL of a xanthine oxidase solution was added to the each solution which was then rapidly stirred and cultured at 25° C. for 20 minutes. 0.1 mL of a 6 mM copper chloride (CuCl2) solution was added to the culture solution to stop the reaction. Absorbance (St) at 560 nm was measured. […] Absorbance (Bt) was measured in the same manner as above. Absorbance (Bo) of the blank of the sample solution was measured in the same manner as above using distilled water instead of the xanthine oxidase solution. In addition, active oxygen scavenge rate (%) was calculated by the following Equation 1. […]

[2] = Antioxidative effect, DPPH method; format: biochemical; settings: sample 0.1 wt %
Method: The DPPH method measures free radical scavenge activity based on reduction power using a free radical, called “DPPH (2,2-di(4-tert-octylphenyl)-1-picrylhydrazyl)”. In the present test example, decrease in absorbance caused by reduction of DPPH by a test substance was compared with an absorbance of a blank test solution, and free radical scavenge rate at a wavelength of 560 nm was measured. Measurement was performed as follows. In addition, BHT, a well-known antioxidant, was used as a positive control group.
0.025, 0.05, 0.1 and 0.25% by weight of different concentrations of the Pleurotus ferulae fruiting body extracts, the Pleurotus ferulae mycelium extracts and the Pleurotus ferulae mycelium cultures were prepared and pipetted into on 96-well plates, and DPPH prepared from a 100 μM methanol solution was added thereto such that the total volume of the solution reached 200 μl. The solution was allowed to stand at 37° C. for 30 minutes, absorbance (St) at 560 nm of the solution was measured and free radical scavenge activity (%) was calculated using the following Equation 2.
Free radical scavenge activity (%)=[…]×100 Equation 2 […]

[3] = tested on: Human keratinocytes HaCaT cell line; assay: Scavenging of active oxygen in cells after UVB (DCFH-DA); format: cell-based; settings: 0.01 wt %, UVB 20 mJ/cm^2
Method: A cell line used for the present test example was a Human keratinocytes HaCaT cell line obtained from Dr. Fusenig in the German Cancer Research Center. The cell line was seeded at a density of 2.0×10^4 cells per well into 96-well black plates for fluorescent measurement and cultured in DMEM (Dulbecco's Modified Eagle's Medium, FBS 10%, Gibco, USA) media containing penicillin and streptomycin at 37° C. in an atmosphere containing 5% CO2 for one day. […] Then, after 100 μl of different concentrates of HCSS was added to the test samples, fluorescence of DCF (dichlorofluorescein) initially oxidized with active oxygen was measured using a fluorescence plate reader (Ex: 485 nm, Em: 530 nm). Then, the samples were irradiated with UVB (20 mJ/cm^2), treated with 0.005, 0.01 and 0.02% by weight of the Pleurotus ferulae fruiting body extract, the Pleurotus ferulae mycelium extract and the Pleurotus ferulae mycelium culture and then measured for fluorescence using the fluorescence plate reader (Ex: 485 nm, Em: 530 nm). At this time, epigallocatechin gallate (EGCG) known to have potent antioxidative effects was used as a positive control group.

[4] = tested on: matrix metalloproteinase (MMP-1); assay: Repression of MMP-1 after ultraviolet irradiation (ELISA); format: cell-based; settings: 0.02 wt %; human dermal fibroblasts, UVA 6.3 J/cm^2, 24 hours
Method: After UV irradiation and addition of samples (Pleurotus ferulae fruiting body extract, Pleurotus ferulae mycelium extract or Pleurotus ferulae mycelium culture, retinol), enzyme-linked immunosorbent assay (ELISA) was carried out to measure concentration of matrix metalloproteinase (MMP-1). Human dermal fibroblasts were irradiated with UVA at an energy of 6.3 J/cm^2 in a UV chamber, and conditions of the dose of ultraviolet radiation and culture time which maximize expression of matrix metalloproteinase (MMP-1) in fibroblasts were established through preliminary testing. A negative control group was wrapped with a foil and exposed to UVA environment for the same time. Here, UVA dose was measured using a UV radiometer. The cells during irradiation of UVA were cultured in the medium previously used. After UVA irradiation, the cells were cultured in a fresh medium containing samples for 24 hours and the medium were coated on 96-well plates. […] The cells were reacted with anti-mouse IgG (whole mouse, alkaline phosphatase conjugated) as a secondary antibody for about 60 minutes, and an alkaline phosphatase substrate solution (1 mg/mL ρ-nitrophenyl phosphate in diethanolamine buffer solution) at room temperature for 30 minutes, and absorbance at 405 nm was measured using a microplate reader. […]

type 1 procollagen = assay: Promotion of type 1 procollagen biosynthesis in fibroblasts; format: cell-based; settings: 0.001 wt %; human dermal fibroblasts, 24 hours
Method: Human dermal fibroblasts isolated from infant epidermal tissues were obtained from Modern Tissue Technology (MTT, Korea) and cultured at 1×10^4 cell/cm2 in a DMEM/F-12 (3:1) medium containing 10% fetal bovine serum (FBS). The human dermal fibroblasts grown to about a confluence of 80% were sub-cultured at a split ratio of 1:3 four times and were then used for the testing.
For the test to measure the amount of procollagen, fibroblasts were cultured to a confluence of 90% or more on a 48-well plate, the Pleurotus ferulae fruiting body extract, the Pleurotus ferulae mycelium […], and after 24 hours, the amount of procollagen released in the medium was measured using a procollagen type-1C-peptide EIA kit (MK101, Takara, Japan). In addition, TGF-β was used as a positive control group.

OC[C@H]1O[C@@H](Oc2ccc(O)cc2)[C@H](O)[C@@H](O)[C@@H]1O [Arbutin, arbutin]
Inhibition of melanin synthesis (%) (B16F1 melanin cells): 55%
Inhibition of tyrosinase activity (%) (tyrosinase): 54%

Cc1cc(C(C)(C)C)c(O)c(C(C)(C)C)c1 [BHT]
Active oxygen scavenge rate (antioxidative effect, %) [1]: 89%
Free radical scavenge rate (antioxidative effect, %) [2]: 85%

O=C(O[C@@H]1Cc2c(O)cc(O)cc2O[C@@H]1c1cc(O)c(O)c(O)c1)c1cc(O)c(O)c(O)c1 [EGCG, epigallocatechin gallate]
Effect of scavenging active oxygen (%) [3]: 45%

CC1=C(/C=C/C(C)=C/C=C/C(C)=C/CO)C(C)(C)CCC1 [Retinol, retinol]
Repression of MMP-1 (%) [4]: 36%

TGF-β
Promotion of procollagen biosynthesis (%) (type 1 procollagen): 125%
